Assay [1] deals with quisqualate type receptors (rat cerebral cortical membrane homogenate). Description: 3H-AMPA binding (displacement of 3H-AMPA from the quisqualate type receptors). The following applies: displacement of 50% of specific 3H-AMPA binding; 5 nM 3H-AMPA, 0° C., 30 min, pH 7.1. On the procedure: (§1) The pharmacological properties of the compounds of the present invention can be illustrated by determining their capability for displacing radioactively labelled 2-amino-3-hydroxy-5-methyl-4-isoxazolepropionic acid (AMPA) from the quisqualate type receptors.
The displacement activity of the compounds may be shown by determining the IC50 value which represents the concentration (μg/ml) which causes a displacement of 50% of the specific binding of ^3 H-AMPA.
500 μl of thawed rat cerebal cortical membrane homogenate in Tris-HCl (30 mM), CaCl2 (2.5 mM) and KSCN ([…]) pH 7.1 were incubated at 0° C. for 30 min. with 25 μl ^3 H-AMPA (5 nM final concentration) and the test compound and buffer. Nonspecific binding was determined by incubation with L-glutamic acid (600 μM final concentration). The binding reaction was terminated by adding 5 ml of ice-cold buffer followed by filtration through Whatman GF/C glass fibre filters and 2×5 ml wash with ice-cold buffer. Bound radioactivity was measured by scintillation counting. IC50 was determined by Hill analysis of at least four concentrations of test compound.

Assay [2] deals with quisqualic acid stimulated Na+-efflux from rat striatal slices. The assay is described as follows: Antagonism of quisqualic acid induced 22Na+-release. Format: cell-based. The following applies: concentration reducing quisqualic acid (2 μg/ml) stimulated 22Na+ efflux rate by 50%. As for the experimental part: as §1
The antagonism is measured by determining the EC50 value which represents the concentration which reduces the rate of quisqualic acid stimulated sodium efflux by 50%.
Antagonism of quisqualic acid induced ^22 Na^+ -release
Slices from rat striatum were preincubated with ^22 Na^+ for 30 min. After the ^22 Na^+ loading period, the slices were successively and every minute transferred through a series of tubes, each containing 1.5 ml of a non-radioactive physiological solution saturated with O2, with the help of a basket shaped sieve. Quisqualic acid (2 μg/ml) was present in the last 5 tubes and the compound to be tested was present in the same 5 tubes plus 3 tubes before. The amount of radioactivity in each washout tube as well as that left in the slices at the end of the experiment was measured by scintillation counting. EC50 -values were calculated by Hill analysis from at least three different concentrations of test compound as the concentration of test compound which reduces the efflux rate of ^22 Na^+ -ions to 50% of the efflux rate in the absence of test compound.

Consider five compounds from US4812458A, “6,7-disubstituted-2,3-dihydroxyquinoxaline compounds, pharmaceutical compositions thereof, and their use as neuroleptics” (A/S Ferrosan, priority 1987, dated 1989).

Converted amounts (≈) assume the structure as drawn.

In the case of `N#Cc1cc2nc(O)c(O)nc2cc1[N+](=O)[O-]` [Example 2, 6-Cyano-2,3-dihydroxy-7-nitroquinoxaline], the IC50 in assay [1] amounted to 0.06 µg/mL (≈ 0.258 µM). Further, in assay [2], it took 0.7 µg/mL (≈ 3.02 µM) to reach a half-maximal effect (EC50).
For `[N-]=[N+]=Nc1cc2nc(O)c(O)nc2cc1[N+](=O)[O-]` [Example 3, 6-Azido-2,3-dihydroxy-7-nitroquinoxaline], the IC50 in assay [1] worked out at 0.26 µg/mL (≈ 1.05 µM). Also, the EC50 in assay [2] was found to be 3 µg/mL (≈ 12.1 µM).
Consider `N#Cc1cc2nc(O)c(O)nc2cc1C(F)(F)F` [Example 5, 6-Cyano-2,3-dihydroxy-7-trifluoromethylquinoxaline], for which the half-maximal inhibitory concentration (IC50) in assay [1] was 0.39 µg/mL (≈ 1.53 µM).
Regarding `O=[N+]([O-])c1cc2nc(O)c(O)nc2cc1Cl` [Example 7, 6-Chloro-2,3-dihydroxy-7-nitroquinoxaline], the IC50 in assay [1] came to 0.43 µg/mL (≈ 1.78 µM). Also, in assay [2], the EC50 came out at 3 µg/mL (≈ 12.4 µM).
For the compound `N#Cc1cc2nc(O)c(O)nc2cc1Cl` [Example 8, 6-Chloro-7-cyano-2,3-dihydroxyquinoxaline], in assay [1], the IC50 was 0.82 µg/mL (≈ 3.7 µM).

As usually defined, the IC50 is the concentration that gives 50% inhibition. A higher IC50 goes with a need for much substance. The term EC50 denotes the concentration that produces a half-maximal response.
